The values below come from US9353107B2 (Aurigene Discovery Technologies Limited, priority 2012, dated 2016).

For the assay, the target named is T1, recombinant human ALK enzyme (ALK WT) (Homo sapiens, UniProt Q9UM73).
T1 construct: purchased Carna Biosciences 08-518
As to the kind of experiment: ALK WT cell free enzymatic assay (TR-FRET). Format: biochemical. The conditions noted are these: 1 μM ATP; for IC50: 10 point dose response; for inhibition at 0.1 µM: compound at 100 nM; for inhibition at 0.1 µM / inhibition at 1 µM: 30 min pre-incubation; for inhibition at 1 µM: compound at 1 μM. The essentials:
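Read-out is TR-FRET (665 nm/615 nm ratio) using an Eu-labeled anti-phosphotyrosine antibody. Compound is pre-incubated 30 min with recombinant human ALK, then reacted 30 min with 1 μM ATP and 40 nM Poly GT substrate. Values are percent inhibition at 100 nM and 1 μM, plus IC50 from 10-point variable-slope regression.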
(In TR-FRET formats the signal depends on donor and acceptor labels being close together.)

T1 sequence (Q9UM73 1058-1620 limits assumed): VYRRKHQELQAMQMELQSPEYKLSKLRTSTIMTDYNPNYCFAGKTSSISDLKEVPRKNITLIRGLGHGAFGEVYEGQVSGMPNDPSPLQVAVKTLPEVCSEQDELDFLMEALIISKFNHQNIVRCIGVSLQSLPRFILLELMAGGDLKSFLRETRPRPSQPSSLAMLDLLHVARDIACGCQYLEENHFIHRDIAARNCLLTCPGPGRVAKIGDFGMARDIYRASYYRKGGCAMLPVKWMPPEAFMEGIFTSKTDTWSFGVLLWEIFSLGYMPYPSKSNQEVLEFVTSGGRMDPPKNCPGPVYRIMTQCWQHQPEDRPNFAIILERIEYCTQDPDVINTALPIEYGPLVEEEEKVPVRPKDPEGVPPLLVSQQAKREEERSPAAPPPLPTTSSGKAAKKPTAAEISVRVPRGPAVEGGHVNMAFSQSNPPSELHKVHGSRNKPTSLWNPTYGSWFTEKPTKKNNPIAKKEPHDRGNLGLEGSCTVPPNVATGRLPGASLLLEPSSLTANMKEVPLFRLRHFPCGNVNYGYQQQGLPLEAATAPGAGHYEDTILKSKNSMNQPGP

Turning to `Cc1cccc(Cn2cc(-c3c[nH]c4ncc(-c5ccc(N6CCN(C[C@H](C)O)CC6)cc5)cc34)cn2)c1` [Example 119, (S)-1-(4-(4-(3-(1-(3-methylbenzyl)-1H-pyrazol-4-yl)-1H-pyrrolo[2,3-b]pyridin-5-yl)phenyl)piperazin-1-yl)propan-2-ol], the IC50 is less than 50 nM, the inhibition at 0.1 µM stood at 86% and the inhibition at 1 µM came out at 93%.
As to `C[C@@H](O)CN1CCN(c2ccc(-c3cnc4[nH]cc(-c5cnn(Cc6cccc(F)c6)c5)c4c3)cc2)CC1` [Example 120, (R)-1-(4-(4-(3-(1-(3-fluorobenzyl)-1H-pyrazol-4-yl)-1H-pyrrolo[2,3-b]pyridin-5-yl)phenyl)piperazin-1-yl)propan-2-ol], the IC50 is less than 50 nM, the inhibition at 0.1 µM worked out at 95% and the inhibition at 1 µM was determined as 99%.
The corresponding values for `C[C@H](O)CN1CCN(c2ccc(-c3cnc4[nH]cc(-c5cnn(Cc6cccc(F)c6)c5)c4c3)c(F)c2)CC1` [Example 121, (S)-1-(4-(3-fluoro-4-(3-(1-(3-fluorobenzyl)-1H-pyrazol-4-yl)-1H-pyrrolo[2,3-b]pyridin-5-yl)phenyl)piperazin-1-yl)propan-2-ol] are less than 50 nM, 91% and 95%.
The corresponding values for `OC1CCN(c2ccc(-c3cnc4[nH]cc(-c5cnn(Cc6cccc(F)c6)c5)c4c3)cc2)CC1` [Example 122, 1-(4-(3-(1-(3-fluorobenzyl)-1H-pyrazol-4-yl)-1H-pyrrolo[2,3-b]pyridin-5-yl)phenyl)piperidin-4-ol] are less than 50 nM, 90% and 96%.
The corresponding values for `Cc1nn(Cc2cccc(F)c2)c(C)c1-c1c[nH]c2ncc(-c3ccc(N4CCN(C[C@H](C)O)CC4)cc3)cc12` [Example 123, (2S)-1-(4-(4-(3-(1-(3-fluorobenzyl)-3,5-dimethyl-1H-pyrazol-4-yl)-1H-pyrrolo[2,3-b]pyridin-5-yl)phenyl)piperazin-1-yl)propan-2-ol] are less than 50 nM, 92% and 96%.
Take `O=C(CC1CC1)N1CCN(c2ccc(-c3cnc4[nH]cc(-c5cnn(Cc6cccc(F)c6)c5)c4c3)cc2)CC1` [Example 124, 2-cyclopropyl-1-(4-(4-(3-(1-(3-fluorobenzyl)-1H-pyrazol-4-yl)-1H-pyrrolo[2,3-b]pyridin-5-yl)phenyl)piperazin-1-yl)ethanone]: the IC50 is greater than 250 nM, the inhibition at 0.1 µM worked out at 17% and the inhibition at 1 µM came out at 86%.
The corresponding values for `CS(=O)(=O)N1CCN(c2ccc(-c3cnc4[nH]cc(-c5cnn(Cc6cccc(F)c6)c5)c4c3)cc2)CC1` [Example 125, 3-(1-(3-fluorobenzyl)-1H-pyrazol-4-yl)-5-(4-(4-(methylsulfonyl)piperazin-1-yl)phenyl)-1H-pyrrolo[2,3-b]pyridine] are less than 50 nM, 86% and 97%.
On to `OCCN1CCN(c2ccc(-c3cnc4[nH]cc(-c5cnn(Cc6cccc(F)c6)c5)c4c3)cc2)CC1` [Example 126, 2-(4-(4-(3-(1-(3-fluorobenzyl)-1H-pyrazol-4-yl)-1H-pyrrolo[2,3-b]pyridin-5-yl)phenyl)piperazin-1-yl)ethanol], for which the IC50 was less than 50 nM, the inhibition at 0.1 µM was 95% and the inhibition at 1 µM is 97%.
As for `CN(C)CC(=O)N1CCN(c2ccc(-c3cnc4[nH]cc(-c5cnn(Cc6cccc(F)c6)c5)c4c3)cc2)CC1` [Example 127, 2-(dimethylamino)-1-(4-(4-(3-(1-(3-fluorobenzyl)-1H-pyrazol-4-yl)-1H-pyrrolo[2,3-b]pyridin-5-yl)phenyl)piperazin-1-yl)ethanone], the IC50 is less than 50 nM, the inhibition at 0.1 µM came to 96% and the inhibition at 1 µM was 97%.
Regarding `O=C(CO)N1CCN(c2ccc(-c3cnc4[nH]cc(-c5cnn(Cc6cccc(F)c6)c5)c4c3)cc2)CC1` [Example 128, 1-(4-(4-(3-(1-(3-fluorobenzyl)-1H-pyrazol-4-yl)-1H-pyrrolo[2,3-b]pyridin-5-yl)phenyl)piperazin-1-yl)-2-hydroxyethanone], the IC50 was less than 50 nM, the inhibition at 0.1 µM was 92% and the inhibition at 1 µM is 94%.
Turning to `Cc1c(-c2c[nH]c3ncc(-c4ccc(N5CCN(C[C@H](C)O)CC5)cc4)cc23)cnn1Cc1cccc(F)c1` [Example 129, (S)-1-(4-(4-(3-(1-(3-fluorobenzyl)-5-methyl-1H-pyrazol-4-yl)-1H-pyrrolo[2,3-b]pyridin-5-yl)phenyl)piperazin-1-yl)propan-2-ol], the IC50 was less than 50 nM, the inhibition at 0.1 µM worked out at 96% and the inhibition at 1 µM was found to be 99%.
`Cc1nn(Cc2cccc(F)c2)cc1-c1c[nH]c2ncc(-c3ccc(N4CCN(C[C@H](C)O)CC4)cc3)cc12` [Example 130, (S)-1-(4-(4-(3-(1-(3-fluorobenzyl)-3-methyl-1H-pyrazol-4-yl)-1H-pyrrolo[2,3-b]pyridin-5-yl)phenyl)piperazin-1-yl)propan-2-ol]: the IC50 is less than 50 nM, the inhibition at 0.1 µM is 88% and the inhibition at 1 µM was 99%.
The corresponding values for `c1cncc(Cn2cc(-c3c[nH]c4ncc(-c5ccc(N6CCNCC6)cc5)cc34)cn2)c1` [Example 131, 5-(4-(piperazin-1-yl)phenyl)-3-(1-(pyridin-3-ylmethyl)-1H-pyrazol-4-yl)-1H-pyrrolo[2,3-b]pyridine] are less than 50 nM, 83% and 99%.
With `Fc1cccc(Cn2cc(-c3c[nH]c4ncc(-c5ccc(N6CCNCC6)nc5)cc34)cn2)c1` [Example 132, 3-(1-(3-fluorobenzyl)-1H-pyrazol-4-yl)-5-(6-(piperazin-1-yl)pyridin-3-yl)-1H-pyrrolo[2,3-b]pyridine], the IC50 was less than 50 nM, the inhibition at 0.1 µM worked out at 100% and the inhibition at 1 µM was determined as 100%.
With `CN1CCN(c2ccc(-c3cnc4[nH]cc(-c5cnn(Cc6cc(F)cc(F)c6)c5)c4c3)cn2)CC1` [Example 133, 3-(1-(3,5-difluorobenzyl)-1H-pyrazol-4-yl)-5-(6-(4-methylpiperazin-1-yl)pyridin-3-yl)-1H-pyrrolo[2,3-b]pyridine], the IC50 was less than 50 nM, the inhibition at 0.1 µM is 97% and the inhibition at 1 µM came out at 100%.
On to `Fc1cc(F)cc(Cn2cc(-c3c[nH]c4ncc(-c5ccc(N6CCNCC6)nc5)cc34)cn2)c1` [Example 134, 3-(1-(3,5-difluorobenzyl)-1H-pyrazol-4-yl)-5-(6-(piperazin-1-yl)pyridin-3-yl)-1H-pyrrolo[2,3-b]pyridine], for which the IC50 is less than 50 nM, the inhibition at 0.1 µM stood at 97% and the inhibition at 1 µM is 100%.
As for `C[C@H](O)CN1CCN(c2ccc(-c3cnc4[nH]cc(-c5cnn(Cc6cc(F)cc(F)c6)c5)c4c3)cn2)CC1` [Example 135, (S)-1-(4-(5-(3-(1-(3,5-difluorobenzyl)-1H-pyrazol-4-yl)-1H-pyrrolo[2,3-b]pyridin-5-yl)pyridin-2-yl)piperazin-1-yl)propan-2-ol], the IC50 is less than 50 nM, the inhibition at 0.1 µM amounted to 95% and the inhibition at 1 µM is 100%.

The IC50 is the concentration at which inhibition is half-maximal. Usually inhibition stands for the percentage by which the read-out fell short of the control.
